# Source: US11952586B2, “B-cell cultivation method” (Hoffmann-La Roche Inc., priority 2017, dated 2024)
# Legend:
# single deposited B-cells = assay: co-cultivation of single deposited B-cells with EL-4 B5 feeder cells; IgG in supernatant by ELISA; type: cell-based, rabbit; conditions: for frequency per plate of rbIgG-positive wells: PMA 0.73 ng/ml; for average productivity/plate, IgG+ wells / frequency/plate rbIgG+: non-immunized animal
# Experimental: Single cell sorted B-cells were cultured in 96-well plates with 200 μl/well EL-4 B5 medium with Pansorbin Cells (SAC) (Calbiochem (Merck), Darmstadt, Deutschland), EL-4 B5 cells (0-5×10^4/well) and rabbit thymocyte supernatant or cytokine mix, respectively, for 7 days at 37° C. in an atmosphere of 5% CO2 in the incubator. B-cell culture supernatants were removed for screening and the cells harvested immediately for variable region gene cloning or frozen at −80° C. in 100 μl RLT buffer (Qiagen, Hilden, Germany).
# A mixture of 0.5 μg/ml of biotinylated mouse anti-rabbit IgG antibody (Sigma-Aldrich) and 0.35 μg/ml anti-rabbit IgG HRP conjugate (Sigma-Aldrich) was transferred to 384 well streptavidin coated microtiter plates (MicroCoat Biotechnologie GmbH). Dilutions of B-cell supernatants in PBS supplemented with 0.5% BSA and 0.05% Tween®-20 were added and incubated for 90 min at RT. After repeated washing (6×) with PBST (phosphate buffered saline with 0.2% Tween buffer the plates were developed with BM Blue® HRP substrate solution and color formation was measured by absorbance at 370 nm. A commercial rabbit IgG (Sigma-Aldrich) was used as a calibration standard.
# EL-4 B5 cells = assay: vitality of irradiated EL-4 B5 cells in presence of PMA; type: cell-based, murine
# Description: Different PMA concentrations in combination with single deposited cells of a non-immunized animal have been tested.
# [1] = PMA 0.57 ng/ml, 50 Gy, 50k/Well
# [2] = PMA 1.3 ng/ml, 3 Gy, 15k/Well, HSA immunized rabbit
# [3] = c(PMA) 0.015 ng/ml, 4 Gy EL-4 B5
# [4] = c(PMA) 0.03 ng/ml, 4 Gy EL-4 B5
# [5] = c(PMA) 0.03 ng/ml, 50 Gy EL-4 B5
# [6] = c(PMA) 0.06 ng/ml, 4 Gy EL-4 B5
# [7] = c(PMA) 0.125 ng/ml, 4 Gy EL-4 B5
# [8] = c(PMA) 0.25 ng/ml, 4 Gy EL-4 B5
# [9] = c(PMA) 0.25 ng/ml, 50 Gy EL-4 B5
# [10] = c(PMA) 1.3 ng/ml, 50 Gy EL-4 B5
smiles,measurement,setting,value
"CCCCCCCCCCCCCC(=O)O[C@@H]1[C@@H](C)[C@@]2(O)[C@@H](C=C(CO)C[C@]3(O)C(=O)C(C)=C[C@@H]23)[C@@H]2C(C)(C)[C@]12OC(C)=O [PMA, phorbol-12-myristate-13-acetate]",IgG+ Frequency,"single deposited B-cells; PMA 0.57 ng/ml, 3 Gy, 15k/Well",32.1 % total wells
same,Average IgG Productivity of all IgG+ wells,"single deposited B-cells; PMA 0.57 ng/ml, 4 Gy, 20k/Well",5.834 µg/mL
same,IgG+ Frequency,"single deposited B-cells; PMA 0.57 ng/ml, 4 Gy, 20k/Well",72.6 % total wells
same,Average IgG Productivity of all IgG+ wells,"single deposited B-cells; PMA 0.57 ng/ml, 5 Gy, 20k/Well",5.269 µg/mL
same,IgG+ Frequency,"single deposited B-cells; PMA 0.57 ng/ml, 5 Gy, 20k/Well",86.9 % total wells
same,Average IgG Productivity of all IgG+ wells,"single deposited B-cells; PMA 0.57 ng/ml, 8 Gy, 20k/Well",5.72 µg/mL
same,IgG+ Frequency,"single deposited B-cells; PMA 0.57 ng/ml, 8 Gy, 20k/Well",81 % total wells
same,Average IgG Productivity of all IgG+ wells,single deposited B-cells; [1],4.876 µg/mL
same,IgG+ Frequency,single deposited B-cells; [1],84.5 % total wells
same,frequency per plate of rbIgG-positive wells,"single deposited B-cells; 0.031x CM, 5,000 non-irradiated EL-4 B5 cells per well",76.2 % total
same,frequency per plate of rbIgG-positive wells,"single deposited B-cells; 0.1x CM, 5,000 non-irradiated EL-4 B5 cells per well",75.0 % total
same,frequency per plate of rbIgG-positive wells,"single deposited B-cells; 0.31x CM, 5,000 non-irradiated EL-4 B5 cells per well",67.9 % total
same,frequency per plate of rbIgG-positive wells,"single deposited B-cells; 1x CM, 5,000 non-irradiated EL-4 B5 cells per well",36.9 % total
same,frequency per plate of rbIgG-positive wells,"single deposited B-cells; 2x CM, 5,000 non-irradiated (0 Gy) EL-4 B5 cells per well",48.8 % total
same,Average IgG Productivity of all IgG+ wells,single deposited B-cells; [2],4.937 µg/mL
same,IgG+ Frequency,single deposited B-cells; [2],8.3 % total wells
same,Average IgG Productivity of all IgG+ wells,"single deposited B-cells; PMA 1.3 ng/ml, 4 Gy, 20k/Well",5.011 µg/mL
same,IgG+ Frequency,"single deposited B-cells; PMA 1.3 ng/ml, 4 Gy, 20k/Well",72.6 % total wells
same,Average IgG Productivity of all IgG+ wells,"single deposited B-cells; PMA 1.3 ng/ml, 5 Gy, 20k/Well",4.8 µg/mL
same,IgG+ Frequency,"single deposited B-cells; PMA 1.3 ng/ml, 5 Gy, 20k/Well",84.5 % total wells
same,Average IgG Productivity of all IgG+ wells,"single deposited B-cells; PMA 1.3 ng/ml, 8 Gy, 20k/Well",5.198 µg/mL
same,IgG+ Frequency,"single deposited B-cells; PMA 1.3 ng/ml, 8 Gy, 20k/Well",88.1 % total wells
same,Average IgG Productivity of all IgG+ wells,"single deposited B-cells; PMA 1.3 ng/ml, 50 Gy, 50k/Well",5.427 µg/mL
same,IgG+ Frequency,"single deposited B-cells; PMA 1.3 ng/ml, 50 Gy, 50k/Well",83.3 % total wells
same,"average productivity/plate, IgG+ wells",single deposited B-cells; [3],3.90 µg/mL
same,frequency/plate rbIgG+,single deposited B-cells; [3],54.0 % total
same,"average productivity/plate, IgG+ wells",single deposited B-cells; [4],3.90 µg/mL
same,frequency/plate rbIgG+,single deposited B-cells; [4],55.6 % total
same,"average productivity/plate, IgG+ wells",single deposited B-cells; [5],1.36 µg/mL
same,frequency/plate rbIgG+,single deposited B-cells; [5],52.4 % total
same,"average productivity/plate, IgG+ wells",single deposited B-cells; [6],3.72 µg/mL
same,frequency/plate rbIgG+,single deposited B-cells; [6],57.5 % total
same,"average productivity/plate, IgG+ wells",single deposited B-cells; [7],3.78 µg/mL
same,frequency/plate rbIgG+,single deposited B-cells; [7],56.0 % total
same,"average productivity/plate, IgG+ wells",single deposited B-cells; [8],3.83 µg/mL
same,frequency/plate rbIgG+,single deposited B-cells; [8],64.3 % total
same,"average productivity/plate, IgG+ wells",single deposited B-cells; [9],2.48 µg/mL
same,frequency/plate rbIgG+,single deposited B-cells; [9],54.4 % total
same,"average productivity/plate, IgG+ wells","single deposited B-cells; c(PMA) 0.5 ng/ml, 4 Gy EL-4 B5",4.06 µg/mL
same,frequency/plate rbIgG+,"single deposited B-cells; c(PMA) 0.5 ng/ml, 4 Gy EL-4 B5",57.5 % total
same,"average productivity/plate, IgG+ wells","single deposited B-cells; c(PMA) 1.3 ng/ml, 4 Gy EL-4 B5",3.57 µg/mL
same,frequency/plate rbIgG+,"single deposited B-cells; c(PMA) 1.3 ng/ml, 4 Gy EL-4 B5",56.0 % total
same,"average productivity/plate, IgG+ wells",single deposited B-cells; [10],3.51 µg/mL
same,frequency/plate rbIgG+,single deposited B-cells; [10],58.7 % total
same,Vitality,"EL-4 B5 cells; c(PMA) 0.03 ng/ml, 4 Gy",54.8%
same,Vitality,"EL-4 B5 cells; c(PMA) 0.03 ng/ml, 50 Gy",3.9%
same,Vitality,"EL-4 B5 cells; c(PMA) 0.06 ng/ml, 4 Gy",45.4%
same,Vitality,"EL-4 B5 cells; c(PMA) 0.125 ng/ml, 4 Gy",39.8%
same,Vitality,"EL-4 B5 cells; c(PMA) 0.25 ng/ml, 4 Gy",34%
same,Vitality,"EL-4 B5 cells; c(PMA) 0.25 ng/ml, 50 Gy",9.5%
same,Vitality,"EL-4 B5 cells; c(PMA) 0.5 ng/ml, 4 Gy",32.2%
same,Vitality,"EL-4 B5 cells; c(PMA) 1.3 ng/ml, 4 Gy",19.2%
same,Vitality,"EL-4 B5 cells; c(PMA) 1.3 ng/ml, 50 Gy",17.4%
